Values quoted from earlier work, collected in patent US11369672B2 (priority 2012, dated 2022).
Values after ≈ are worked out from the molar mass of the structure shown.

Test system: Mtb H37Rv

## CO[C@H]1/C=C/O[C@@]2(C)Oc3c(C)c(O)c4c(O)c(c(/C=N/N5CCN(C)CC5)c(O)c4c3C2=O)NC(=O)/C(C)=C\C=C\[C@H](C)[C@H](O)[C@@H](C)[C@@H](O)[C@@H](C)[C@H](OC(C)=O)[C@@H]1C [RIF, rifampin]
  minimum inhibitory concentration: 0.25 µM (≈ 0.206 µg/mL)
